Test results from US10780076B2, “Inhibition of cancer cell motility” (Northwestern University, priority 2014, dated 2020).

Tests used:
[1] = system: array of over 9,000 human proteins; experiment: ProtoArray Human Protein Microarray hybridization; assay type: binding
Procedure: FIGS. 19A-D. KBU2046 binds to intact cells, but not to isolated proteins. (A) Chemical structure of KBU2046 linked to biotin (KBU2046-biotin). […] PC3-M cells were pre-treated with 10 μM KBU2046 or with KBU2046-biotin for three days, and single cell motility assays conducted. Data are the mean±SEM. […] PC3-M cells were labeled with […]+/−10 μM free KBU2046, followed by detection with FITC-streptavidin, and visualization by fluorescent microscopy (with equal exposure times). (D) Protein array hybridization. KBU2046-biotin was hybridized to ProtoArray® Human Protein Microarray's at 0.5 and 10 μM with and without 10-fold excess free KBU2046. Proteins were first sought that met the following criteria, and did so at both 0.5 and 10 μM concentrations of KBU2046-biotin (in the absence of free KBU2046): Z-Score greater than 2.5, Z-Factor greater than 0.5, CI P-value less than 0.05, negative control value <2,000 (relative fluorescence units; RFUs), and a signal/negative control signal of >10 and >5 for 10 μM and 0.5 μM conditions, respectively. This yielded 3 proteins, shown in table, for an initial hit rate of 0.03%. It was then required that free KBU2046 inhibit binding by >75% of the two remaining candidates, eliminating isovaleryl-CoA dehydrogenase (ICD). […] The positive control used in protein arrays was staurosporine. Staurosporine is similar to genistein in that both are small compound natural products that are broad spectrum kinase inhibitors. […] The vast majority of these proteins were kinases. Both HSP90β and CDC37 were present on the protein arrays, and were not bound by KBU2046-biotin.

PC3-M cells [2] = experiment: Single cell motility assay with KBU2046-biotin; assay type: cell-based, human; conditions: 10 μM, three days
Procedure: PC3-M cells were pre-treated with 10 μM KBU2046 or with KBU2046-biotin for three days, and single cell motility assays conducted.
FIGS. 23A-C. […] PC3-M cells were pre-treated with 10 μM KBU2046 or with KBU2046-biotin for three days, and single cell motility assays conducted.

PC3-M cells [3] = experiment: Cell labeling with FITC-streptavidin detection; assay type: cell-based, human; conditions: +/−10 μM free KBU2046
[4] = system: protein phosphorylation (kinome) in PC3-M and PC3 cells; experiment: KinomeView phospho-motif antibody screen; assay type: cell-based, human; conditions: 10 μM, 3 days, ±TGFβ
Procedure: FIG. 14A-D. Proteomic analysis of the effects of KBU2046 on the kinome. Screening for effects on the kinome. PC3-M cells were pre-treated with 10 μM KBU2046, genistein or vehicle control for 3 days, then with ±TGFB, as indicated. Resultant cell lysate, as well as lysate from tumors from mice treated with 150 mg/kg KBU2046 or control mice (from manuscript FIG. 3A), were then probed with the KinomeView® panel of antibodies by Western blot. In instances where KBU2046 was inhibiting protein phosphorylation in cells and in tumors, a repeat experiment of PC3-M cells was conducted. In addition to including PC3-M cells, experiments were expanded to examine effects on PC3 cells. […] (C,D) All other Western blots of phospho-motif antibodies that were evaluated on initial screen. NI=tumor not informative; this denotes a tumor sample that yielded an abnormal coomassie blue staining pattern.
Screening for changes in the kinome induced by KBU2046 were evaluated with the Kinoview™ assay system. […]
The KinomeView® panel of antibodies (Cell Signaling Technology, Inc.) detects established protein phosphorylation motifs, and were was to probe for KBU2046-induced changes in protein phosphorylation (FIG. 5A; FIGS. 14A-D). […] Genistein was evaluated under identical treatment conditions for comparison. […]

MKK4 = biological target: T1, MKK4 (Homo sapiens, UniProt P45985); conditions: low nanomolar concentrations; cited from earlier work
T1 sequence (P45985 1-399): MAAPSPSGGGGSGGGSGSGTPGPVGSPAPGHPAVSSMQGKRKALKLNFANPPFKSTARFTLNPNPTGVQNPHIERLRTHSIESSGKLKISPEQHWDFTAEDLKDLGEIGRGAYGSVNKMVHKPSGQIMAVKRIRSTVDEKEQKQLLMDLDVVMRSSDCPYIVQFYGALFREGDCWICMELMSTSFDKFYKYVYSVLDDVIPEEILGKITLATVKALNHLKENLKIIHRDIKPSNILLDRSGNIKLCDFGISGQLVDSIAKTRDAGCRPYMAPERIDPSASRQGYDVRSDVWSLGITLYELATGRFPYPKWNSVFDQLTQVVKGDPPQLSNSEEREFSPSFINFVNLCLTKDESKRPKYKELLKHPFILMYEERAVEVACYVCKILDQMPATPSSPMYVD

O=C(CCCC[C@@H]1SC[C@@H]2NC(=O)N[C@@H]21)NCCOCCOCCOCCOc1ccc2c(c1)OCC(c1ccc(F)cc1)C2=O (stereo partly shown) [KBU2046-biotin]
binding to protein array ([1]; 0.5 and 10 μM): lack of binding | initial hit rate on protein array ([1]; 0.5 and 10 μM, before competition criterion): 0.03% | biological activity in single cell motility (PC3-M cells [2]): biologically active | labeling of intact cells (PC3-M cells [3]): labels cells in a manner that can be competed off

O=c1c(-c2ccc(O)cc2)coc2cc(O)cc(O)c12 [genistein, 4′,5,7-trihydroxyisoflavone]
changes in protein phosphorylation [4]: widespread changes in protein phosphorylation | inhibition of MKK4 kinase activity (literature) (MKK4): inhibited the kinase activity

CN[C@@H]1C[C@H]2O[C@@](C)([C@@H]1OC)n1c3ccccc3c3c4c(c5c6ccccc6n2c5c31)C(=O)NC4 [staurosporine, reference compound]
number of proteins bound at >/=10 fold above background ([1]; positive control): 214 proteins
